Test results from US20040072750A1, “Compounds and methods for the modulation of CD154” (priority 2001, published 2004).
Bridge positions count the residues as written; N and C are the ends. Square brackets hold non-standard residues; d marks the D form. Peptide text beside a SMILES is read from it. hArg = N=C(N)NCCCC[C@H](N)C(=O)O; Mpa = O=C(O)CCS

B1: rsCD154: bacterially expressed recombinant human soluble CD154 (108 a.a-261 a.a.), 18-kDa protein (protein)
chain: ENSFEMQKGDQNPQIAAHVISEASSKTTSVLQWAEKGYYTMSNNLVTLENGKQLTVKRQGLYYIYAQVTFCSNREASSQAPFIASLCLKSPGRFERILLRAANTHSSAKPCGQQSIHLGGVFELQPGASVFVNVTDPSQVSHGTGFTSFGLLKL

How the values were obtained:
[1] = system: platelets in whole blood; assay: Perfusion chamber: thrombus formation of whole blood on protein-coated surface under shear; type: cell-based, human
Experimental: The effect of CD154 on the aggregation of platelets under conditions of high shear stress were evaluated. Recombinant CD154 (rCD154 or rCD40L) was compared to fibrinogen (Fg) in its ability to form thrombi as well as in combination with Fg. Controls also included CD154 in which the KGD eptifibatide-recognition sequence was mutated to KGE (CD154(KGE) or CD40L(KGE)). Briefly, a silicone gasket with a flow path height of 127 μm was placed between a flat perfusion chamber (Glycotech, Rockville, Md.) and a protein-coated petri dish as described (Andre, P. et al., Nature Medicine, 8:247-252 (2002)). Petri dishes were coated with rCD40L, Fibrinogen (Fg), rCD40L+Fg, mutated CD40L (CD40L(KGE)), CD40L(KGE)+Fg. In one experiment, the glycoprotein IIb/IIIa antagonist eptifibatide (2 μM) was incubated with whole blood before perfusion over the rCD40L-coated surface. When Fg was coated with either rCD40L or CD40L(KGE), each molecule was deposited at 25 μg/cm^2. Coating of the proteins was performed using the spray method in which 25 μl of a 1 mg/ml protein solution is coated onto the plastic with a retouching air brush resulting in a concentration of 25 μg/cm^2 (Houdijk, WP et al., J. Clin. Invest., 75:531-540 (1985)). Human peripheral blood was collected on PPACK (40 μmol/L final concentration) and perfused for 4 minutes over the protein-coated surface. Shear rates of 1500-1600/s, 500-600/s and 100-200/s, were generated with flow rates of ˜0.6, 0.25 and 0.075 ml/min, respectively. Measurements of thrombotic deposits were performed using the Simple PCI software image analysis program (Technical Instrument, Burlingame, Calif.).

[2] = system: platelets; assay: Platelet function (Accumetrics RPFA) in patients undergoing PCI; type: in vivo, human; conditions: 10 minutes post final bolus
Experimental: (§1) Patients (n=45) undergoing PCI were enrolled. The study was approved by the IRB and all patients signed informed consent. Exclusion criteria included higher risk clinical scenarios mandating, according to institutional clinical practice, the use of GP IIb/IIIa antagonists (i.e., acute ST elevation MI or non q-wave MI with CPK elevation, pain at rest with EKG changes <24 hours, visible thrombus, pain refractory to heparin), pre-procedural GP IIb/IIIa inhibitor treatment, restenotic and graft lesions, and standard conditions excluding GP IIb/IIIa inhibitor use.
(§2) All patients received aspirin and intravenous heparin (50-70U/kg) monitored by activated clotting time (ACT) during the procedure. Patients were administered either no GP IIb/IIIa inhibitor, eptifibatide (180 μg/kg double bolus followed by 2 μg/kg/min for 16 h), or abciximab (0.25 mg/kg bolus intravenously followed by 0.125 μg/kg/min for 12 h) at the discretion of the primary operator. Platelet function was monitored using PPACK-anticoagulated blood and the Accumetrics RPFA device at baseline and 10 min post-final bolus. Interventionalists were blinded to RPFA results and not permitted to modify GP IIb-IIIa inhibitor dosing. Post-PCI, patients received clopidogrel (300 mg PO) followed by 75 mg daily.

[3] = Plasma inflammatory markers after PCI (ELISA); type: in vivo, human
Experimental: as §1, §2
Venous blood samples were collected prior to (t=0) and at 30 minutes, 2 hours, and 24 hours after the angioplasty wire was advanced across the lesion. Blood was collected into 10 mL tubes with either EDTA (for sCD 154 analysis) or PPACK (for all other analyses) anticoagulant, centrifuged at 4° C., and stored at −80° C. until analysis.
Inflammatory markers in plasma samples were quantified by commercially available ELISA for sCD154 (Alexis BioChemical) with modification (12), RANTES, IL6, sICAM-1 (BioSource), and CRP (Alpha Diagnostic International).
Primary endpoint data are presented as mean±SE. Data were log transformed to achieve a normal distribution verified by Kolmogorov-Smirnov test for normality. Statistical comparisons were performed using two-way ANOVA to determine a difference in mean values over time between the 3 groups. Pair-wise comparisons were performed when the ANOVA false-positive rate was ≦5%. A Bonferroni corrective for 3 pair-wise comparisons was applied, in which the p-value of […] was used to signify a false-positive rate of 5%. For ANOVA with a false-positive rate of ≧5%, the pair-wise comparisons were reported to be statistically nonsignificant (NS). Baseline and procedural characteristics data were analyzed with standard one way ANOVA for continuous data in more than 3 groups and a student's t-test for comparison of 2 groups. A Mann-Whitney Rank Sum test was used for nominal data. Statistical significance was assumed if the false positive rate was ≦5%.

[4] = system: washed platelets; assay: Fibrinogen binding to washed platelets and microparticle generation (flow cytometry); type: cell-based, human
Experimental: Venous blood was collected from normal donors into ACD buffer (85 mM Sodium Citrate, […] and 71 mM Citric acid) containing 0.05 μg/ml prostaglandin 12(PGI2). Blood was later centrifuged at 160×g for 20 minutes to collect platelet rich plasma (PRP). PRP was centrifuged at 1100×g for 10 minutes to sediment platelets. Platelets were washed twice with CGS buffer (13 mM trisodium citrate, 120 mM sodium chloride and 30 mM dextrose pH 7.0). The first wash had 0.03 μg/ml PGI2. Washed platelets were finally suspended in Tyrodes-Hepes buffer (12 mM sodium bi-carbonate, 138 mM sodium chloride, 5.5 mM glucose, 2.9 mM potassium chloride, 10 mM Hepes, 1 mM calcium chloride and 1 mM magnesium chloride, pH 7.4).
Washed platelets (1×10^7/ml) were incubated for 60 minutes at 37° C. with 2 μM soluble CD154 (sCD154) or mutant sCD154 (D117E mutation in the KGD sequence) in the presence or absence of eptifibatide or anti-CD40 antibody. All incubations had 100 nM Alexa-Fibrinogen (Molecular probes, Eugene, Oreg.). Samples were diluted 10 fold with stain buffer (BD Pharmingen, Los Angeles, Calif.) after incubation and analyzed by flow cytometry (FACSort, BD, San Jose, Calif.).

| Molecule | Binding of platelets to the rCD40L ([1]; eptifibatide 2 μM incubated with whole blood) | Platelet inhibition (% inhibition) [2] [%] | rise of sICAM-1 and IL-6 after PCI ([3]; 2-24 hours after PCI, not statistically significant) | plasma sCD154 levels after PCI ([3]; 30 minutes, 2 hours, 24 hours versus baseline) | plasma RANTES levels after PCI ([3]; versus baseline) | effect on sCD154-induced fibrinogen binding and microparticle generation ([4]; 2 μM sCD154, eptifibatide 2.5 μM) | aggregation process (mean thrombus area) on coated surface versus Fg ([1]; shear rate of 1500-1600/s, 25 μg/cm^2 coating) | fibrinogen binding to platelets and generation of microparticles ([4]; 2 μM protein, 60 minutes at 37° C., FIG. 10) |
| --- | --- | --- | --- | --- | --- | --- | --- | --- |
| N=C(N)NCCCC[C@@H]1NC(=O)CCSSC[C@@H](C(N)=O)NC(=O)[C@@H]2CCCN2C(=O)[C@H](Cc2c[nH]c3ccccc23)NC(=O)[C@H](CC(=O)O)NC(=O)CNC1=O [eptifibatide] ([Mpa][hArg]GDWPC-NH2; disulfide 1-7) | inhibited | 98±3 | lowest level of rise | significantly lower than baseline | significant reductions | inhibited |  |  |
| B1 |  |  |  |  |  |  | significantly enhances | induced |
